Here are results for 8 molecules from patent publication US20110053914A1, “Pharmaceutical Combination Comprising 6-Dimethylaminomethyl-1-(3-methoxy-phenyl)-cyclohexane-1,3-diol or 6-Dimethylaminomethyl-1-(3-hydroxy-phenyl)-cyclohexane-1,3-diol and an Antiepileptic” (Gruenenthal GmbH, priority 2009, published 2011).

What all share (assay type): in vivo, rat
Experiment [1] relates to rats. The experiment in a line: Randall-Selitto test in rats (carrageenan inflammatory pain). The note with it: for ED50: Rattus norvegicus, 0.25 h. As to the method: The weight ratios of the components (a) and (b) that will lead to a supra-additive effect (synergistic effect) of the inventive pharmaceutical composition may be determined via the test of Randall and Selitto as described in Arch. Int. Pharmacodyn., 1957, 111: 409 to 419, which is a model for inflammatory pain. The respective part of the literature is hereby incorporated by reference and forms part of the present disclosure.
Acute inflammation was induced by an intraplantar injection of 0.1 ml of a carrageenan solution (0.5% in distilled water) into one hind paw. The mechanical nociceptive threshold was measured 4 hours after carrageenan injection using an Algesiometer (Ugo Basile, Italy). The device generates a mechanical force with a linear increase over time. The force is applied to the dorsal surface of the inflamed rat hind paw via a cone-shaped stylus with a rounded tip (2 mm tip diameter). The nociceptive threshold is defined as the force (in grams) at which the rat vocalises (cut-off force 250 g). The mechanical nociceptive threshold is measured at different timepoints after the drug or vehicle administration. The antinociceptive and antihyperalgesic activity of the tested substance is expressed as percentages of the maximal possible effect (% MPE). The group size is n=10.
The interactions studies presented herein were performed using equieffective doses of the two components, calculated from the ratio of the respective ED50 values of the components if administered alone.
The application route was intravenous (i.v.) for Axomadol hydrochloride (A) and intraperitoneal (i.p.) for the anticonvulsants Lamotrigine, Lacosamide, Levetiracetam, Retigabine and Carbamazepine. […] According to their respective timepoint of peak effect, A was applied 15 min and the anticonvulsant component also 15 min before timepoint of measurement of the interaction-experiments (i.e. both components were applied simultaneously). Thus, the time point of ED50 calculation of the combination corresponds to the timepoint of the peak effect of the respective compound.

A further experiment has as its system male Sprague Dawley rats. The experiment in a line: Paw incision model in rats (post-operative pain), electronic von Frey. The note with it: intraperitoneal, at maximum effect; effective dose at 25% of the maximum effect; tactile hyperalgesia. From the text: The paw incision model (Brennan, T. J., Vandermeulen, E. P., Gebhart, G. F., Pain 64, (1996), 493-501) is an animal model of post-operative pain.
In male Sprague Dawley rats (body weight 180-200 g) a longitudinal incision of 1 cm length is made, starting 0.5 cm from the proximal end of the paw, through the skin and fascia. Using bent tweezers the muscle is lifted up from the bottom and incised lengthwise, flat and centered using a scalpel. The muscle is spreaded bluntly with the tweezers. Subsequently, the wound is closed with two sutures.
The tactile hyperalgesia two hours after the operation is determined using an electronic von Frey filament (Somedic Sales AB, Hörby, Sweden). […] In order to investigate the sensitivity to the mechanical stimulus, the paw retraction threshold is determined on the ipsilateral paw as well as in the same position on the untreated contralateral paw and is given in grams of the applied pressure. The retraction threshold per paw is measured four times and the median value is then determined. The retraction threshold of the ipsi- and contralateral paw is measured prior administration (pre-test value) and at several times after administration of a substance, namely (15, 30 and 60 minutes after administration). […]
From the median values the Maximum Positive Effect (% MPE) is determined according to the following formula: […]

For experiment [2], the system named is rats. The experiment in a line: Spinal nerve ligation (Chung model for mononeuropathic pain) in rats, anti-allodynic testing. To be noted: 30 min after A; A 4 mg/kg iv; B 10 mg/kg iv 20 min before A or vehicle; tactile allodynia. As to the method: Under pentobarbital anaesthesia (Narcoren®, 60 mg/kg i.p., Merial GmbH, Hallbergmoos, FRG), the L5, L6 spinal nerves were tightly ligated (Kim and Chung, Pain 1992; 50: 355). The left L5 and L6 spinal nerves were exposed by removing a small piece of the paravertebral muscle and a part of the left spinous process of the L5 lumbar vertebra. The L5 and L6 spinal nerves were then carefully isolated and tightly ligated with silk (NC-silk black, USP 5/0, metric 1, Braun Melsungen AG, Melsungen, FRG). After checking hemostasis, the muscle and the adjacent fascia were closed with sutures and the skin was closed with sutures.
After operation, animals were allowed to recover for one week. Animals develop tactile allodynia which is stable for at least five weeks. […] Threshold for tactile allodynia was measured with an electronic von Frey anesthesiometer (Somedic, Sweden). […] The median of the withdrawal threshold for each animal at a given time is calculated from five individual stimulations with the electronic von Frey filament. Withdrawal thresholds of the injured paws are expressed as % maximal possible effect (% MPE) comparing predrug threshold of Chung-animals (=0% MPE) and control threshold of sham-animals (=100% MPE). […] The effect of each compound and vehicle is calculated for each testing time point (e.g. 0.5, 1, 3 h post administration) as interindividual % MPE value (±SEM). […]

Where [3] appears, read: ip, i.p., 15 min p. appl. (peak effect), read-out: ED50 [mg/kg] of the anticonvulsant alone.

The structures appear in SMILES notation. Where a name gives a salt, the structure may show the parent alone. Read-outs that look alike come from different tables or passages of the source.

On to `CC[C@@H](C(N)=O)N1CCCC1=O` [Levetiracetam], for which, in the experiment on rats [1] (setting [3]), the ED50 is 986 mg/kg. Further, the “Time point of peak effect p. appl.” value in the experiment on rats [1] (anticonvulsant alone, i.p.) worked out at 15 min.
Consider `COc1cccc([C@@]2(O)C[C@H](O)CC[C@@H]2CN(C)C)c1` (racemic) [A, (1RS,3RS,6RS)-6-dimethylaminomethyl-1-(3-methoxy-phenyl)-cyclohexane-1,3-diol hydrochloride], for which the “ED25 [mg/kg] (confidence interval) of the individual substance” value in the experiment with male Sprague Dawley rats is given as 9.15 mg/kg. Besides, the “Time point of peak effect p. appl.” value in the experiment on rats [1] (A alone, i.v., timepoint of first measurement) is 15 min. Besides, in the experiment on rats [1] (iv, i.v., 15 min p. appl. (peak effect), read-out: ED50 [mg/kg] of A alone), the ED50 is 15.3 mg/kg. For the same molecule, in the experiment on rats [1] (i.v., 15 min p. appl. (peak effect), hydrochloride), the “ED50 [mg/kg] of A alone” value is recorded as 15.3 mg/kg. In addition, the “Effect % MPE (time after administration of A)” value in the experiment with rats [2] is given as 29 ± 6 (30 min) % MPE.
Consider `Nc1nnc(-c2cccc(Cl)c2Cl)c(N)n1` [Lamotrigine], for which the ED50 in the experiment with rats [1] (setting [3]) was 35.3 mg/kg. Further, the “Time point of peak effect p. appl.” value in the experiment with rats [1] (anticonvulsant alone, i.p.) came out at 15 min.
In the same order, the values of `CCOC(=O)Nc1ccc(NCc2ccc(F)cc2)cc1N` [Retigabine] are 5.09 mg/kg and 15 min.
Turning to `CC(C)C[C@H](CN)CC(=O)O` [(S)-pregabaline], in the experiment with male Sprague Dawley rats, the “ED25 [mg/kg] (confidence interval) of the individual substance” value is given as 18.8 mg/kg.
As to `NCC1(CC(=O)O)CCCCC1` [B, Gabapentin hydrochloride], the “Effect % MPE (time after administration of A)” value in the experiment on rats [2] is 16 ± 5 (30 min) % MPE.
With `COC[C@@H](NC(C)=O)C(=O)NCc1ccccc1` [Lacosamide], the ED50 with rats [1] (setting [3]) amounted to 35.9 mg/kg. The “Time point of peak effect p. appl.” value with rats [1] (anticonvulsant alone, i.p.) turned out to be 15 min. In addition, in the experiment with rats [1] (i.p., 15 min p. appl. (peak effect)), the “ED50 [mg/kg] of the anticonvulsant alone” value was 35.9 mg/kg.
For the molecule `NC(=O)N1c2ccccc2C=Cc2ccccc21` [Carbamazepine], in the experiment on rats [1] (setting [3]), the ED50 turned out to be 30 mg/kg. Also, in the experiment with rats [1] (anticonvulsant alone, i.p.), the “Time point of peak effect p. appl.” value stood at 15 min.
